Source: US8980646B2, “Proteolytic and covalent antibodies” (priority 2003, dated 2015)

How the values were obtained:
human IgG HS-2 = test: Irreversible inhibition of HS-2 IgG-catalyzed [Tyr10-125I]-VIP cleavage; format: biochemical; conditions: for IC50: IgG 2 μM preincubated 16 h with CRA, unreacted CRA removed
Method: FIG. 23. Inhibition of polyclonal antibody catalyzed VIP cleavage by VIP-CRA 3 and hapten CRA 1. Panel A: Reversed-phase HPLC profiles showing cleavage of [Tyr^10-^125I]-VIP at multiple sites by human IgG HS-2. [Tyr^10-^1251I]-VIP incubated in the presence (●) or absence (◯) of HS-2 IgG (2 μM) for 16 h and subjected to HPLC [Nova-pak C, 3.9×150 mm; 0.1% TFA in water: 0.1% TFA in 80% acetonitrile 95:5 for 10 min, 95:5 to 30:70 in 55 min, 30:70 to 0:100 in 5 min, 0:100 for 5 min (0.5 ml/min)]. Shown are values of ^125I radioactivity recovered in the HPLC fractions (0.5 ml). Panel B: Irreversible inhibition of HS-2 IgG-catalyzed [Tyr^10-^125I]-VIP cleavage by VIP-CRA 3 and hapten CRA 1. IgG (2 μM) was preincubated for 16 h in the absence or presence of increasing concentrations of VIP-CRA 3 (●) or hapten CRA 1 (◯). Following removal of unreacted CRA by chromatography on immobilized Protein G, the residual catalytic activity of the IgG was measured using [Tyr^10-^125I]-VIP as substrate. Data are means±SD. Control HS-2 IgG incubated in the absence of CRAs cleaved 2791 c.p.m. [Tyr^10-^125I]-VIP.
Preparation and assay of cleavage of [Tyr^10-^125I]-VIP were described previously (24). To determine if the CRAs inhibit Abs irreversibly, IgG (2 μM) was incubated (37° C.) with 1 or 3 for 16 h in 50 mM Tris.HCl-0.1M Gly (pH 8.0) containing 2.5% DMSO and 0.025% Tween 20. Unreacted 1 or 3 was then removed by chromatography of the reaction mixtures (0.2 ml) on protein G columns as in ref35 (50 μl settled gel; washed with 0.8 ml 50 mM Tris.HCl, pH 7.4; eluted with 0.2 ml 0.1 M Gly.HCl, pH 2.7; neutralized with 1M Tris.HCl, pH 9). Fifty μl aliquots of the recovered IgG (and IgG-CRA complexes) were incubated with [Tyr^10-^125I]-VIP (86,000 c.p.m.) for 18 h and peptide cleavage was determined by measuring the radioactivity soluble in trichloroacetic acid. Control IgG samples were incubated without CRA, chromatographed and analyzed for VIP cleaving activity in the same way.

peptide-AMC substrates = test: Peptide-AMC cleavage by IgM, IgG and Fab (fluorimetry); format: biochemical; conditions: 675 nM pepsin; other conditions as FIG. 31B
polyclonal murine IgM = format: biochemical, mouse
IgG = format: biochemical, human
murine splenocytes = test: Hapten CRA I staining of splenocytes / B cells (microscopy, flow cytometry, extract affinity chromatography)
[1] = test system: anti-VIP IgG c23.5 light chain; format: binding, mouse
[2] = target: gp120-CRA III (HIV-1, MN strain) (UniProt P05877); test: ELISA, serum 1:100, immobilized III
[3] = target: HIV-1 gp120 (MN strain, recombinant, baculovirus expression system) (HIV-1, MN strain) (UniProt P05877); test: ELISA, serum 1:100, immobilized gp120
[4] = target: exEGFR protein CRA IV (human) (UniProt P00533)
[5] = Irreversible hapten CRA I binding by IgG, scFv and trypsin (SDS-electrophoresis of biotin-containing adducts); conditions: CRA I 100 μM; linear regression of FIG. 8B data

Molecule: VIP-CRA 3: N-terminally biotinylated VIP with amidino phosphonate diester on the Lys20 side chain; called VIP-CRA 4 in Examples VI, XI
- VIP-CRA concentration giving near-complete inhibition of catalysis (human IgG HS-2; IgG 2 μM preincubated 16 h): > 20 µM
- IC50 (human IgG HS-2): 7 µM

Molecule: pepsin: purified porcine pepsin used as control
- cleavage of Glu-Ala-Arg-AMC by pepsin (peptide-AMC substrates): did not cleave

Molecule: N=C(N)c1ccc(C(NC(=O)CCCCCNC(=O)CCCC[C@@H]2SC[C@@H]3NC(=O)N[C@@H]32)P(=O)(Oc2ccccc2)Oc2ccccc2)cc1 (stereo partly drawn) [hapten CRA I, Diphenyl N-(6-biotinamidohexanoyl)amino(4-amidinophenyl)methanephosphonate]
- inhibition of murine IgM activity (polyclonal murine IgM): 9-100%
- IC50 (polyclonal murine IgM; read-out: IC50, murine IgM Glu-Ala-Arg-AMC cleavage): 42 µM
- IC50 (human IgG HS-2): 36 µM
- effect on IgG-catalyzed peptide-MCA cleavage (IgG): inhibited
- cell viability following incubation (trypan blue exclusion) (murine splenocytes): No loss of viability
- CRA I-stained cells positive for B cell marker CD19 (murine splenocytes; 3 repeat experiments): 82±4%
- total CRA content of B cells adsorbed by immobilized Abs to μ and κ/λ chains (murine splenocytes; B cell extract, densitometry): Eighty
- cells displaying intense staining (murine splenocytes; N 3 experiments, counting 400 lymphocytes, UV microscope): 11±2
- minority subpopulation with very high fluorescence intensity (murine splenocytes; flow cytometry): 14%
- CRA I-treated cells with fluorescence intensity exceeding compound II-treated cells (murine splenocytes; flow cytometry, 100 μM, 4 hours): Seventy nine

Molecule: vasoactive intestinal peptide [VIP]
- inhibition of formation of VIP-CRA 3 adducts with anti-VIP light chain [1]: 41.0±7%

Molecule: nonimmune mouse IgG / nonimmune mouse serum (antibody)
- A490 [2]: -0.002 A490
- A490 [3]: 0.001 A490
- kobs (pseudo-first order rate constant for accumulation of adducts) [4]: < 0.0072 h⁻¹

B1: trypsin: porcine trypsin, type IX, Sigma (protein, UniProt P00761 9-231, looked up)
Trypsin: IVGGYTCAANSIPYQVSLNSGSHFCGGSLINSQWVVSAAHCYKSRIQVRLGEHNIDVLEGNEQFINAAKIITHPNFNGNTLDNDIMLIKLSSPATLNSRVATVSLPRSCAAAGTECLISGWGNTKSSGSSYPSLLQCLKAPVLSDSSCKSSYPGQITGNMICVGFLEGGKDSCQGDSGGPVVCNGQLQGIVSWGYGCAQKNKPGVYTKVCNYVNWIQQTIAAN
- velocity of covalent I adduct formation [5]: 11.9±0.6 AAU/min
